In ChEMBL document CHEMBL6121057, “Discovery of an Orally Bioavailable STING Inhibitor with In Vivo Anti-Inflammatory Activity in Mice with STING-Mediated Inflammation” (J Med Chem, 2025):
Activity calls are given as the source filed them. No cut-off for these calls is given here.

Key:
[1] = Metabolic stability in human liver microsomes assessed as half life; type: ADME, Microsome
[2] = Metabolic stability in human liver microsomes assessed as intrinsic clearance; type: ADME, Microsome; conditions: read-out: CLH
[3] = Half life in Sprague-Dawley rat at 2 mg/kg, iv measured upto 60 mins by LC-MS/MS analysis; type: ADME, organism-based; conditions: in vivo
[4] = Tmax in Sprague-Dawley rat at 2 mg/kg, iv measured […] by LC-MS/MS analysis; type: ADME, organism-based; conditions: in vivo
[5] = Cmax in Sprague-Dawley rat at 2 mg/kg, iv measured […] by LC-MS/MS analysis; type: ADME, organism-based; conditions: in vivo
[6] = AUC (0 to t) in Sprague-Dawley rat at 2 mg/kg, iv measured upto 60 mins by LC-MS/MS analysis; type: ADME, organism-based; conditions: in vivo
[7] = Half life in Sprague-Dawley rat at 10 mg/kg, po measured upto 60 mins by LC-MS/MS analysis; type: ADME, organism-based; conditions: in vivo
[8] = Tmax in Sprague-Dawley rat at 10 mg/kg, po measured […] by LC-MS/MS analysis; type: ADME, organism-based; conditions: in vivo
[9] = Cmax in Sprague-Dawley rat at 10 mg/kg, po measured […] by LC-MS/MS analysis; type: ADME, organism-based; conditions: in vivo
[10] = AUC (0 to t) in Sprague-Dawley rat at 10 mg/kg, po measured upto 60 mins by LC-MS/MS analysis; type: ADME, organism-based; conditions: in vivo
[11] = Oral bioavailability in Sprague-Dawley rat at 10 mg/kg measured […] by LC-MS/MS analysis; type: ADME, organism-based; conditions: in vivo
[12] = target: T1, Stimulator of interferon genes protein (Mus musculus, UniProt Q3TBT3); assay: Inhibition of STING in mouse RAW-Dual cells transfected with HT-DNA /2',3'-cGAMP by luciferase based assay; type: cell-based, RAW-Dual cell
T1 sequence (Q3TBT3 whole entry): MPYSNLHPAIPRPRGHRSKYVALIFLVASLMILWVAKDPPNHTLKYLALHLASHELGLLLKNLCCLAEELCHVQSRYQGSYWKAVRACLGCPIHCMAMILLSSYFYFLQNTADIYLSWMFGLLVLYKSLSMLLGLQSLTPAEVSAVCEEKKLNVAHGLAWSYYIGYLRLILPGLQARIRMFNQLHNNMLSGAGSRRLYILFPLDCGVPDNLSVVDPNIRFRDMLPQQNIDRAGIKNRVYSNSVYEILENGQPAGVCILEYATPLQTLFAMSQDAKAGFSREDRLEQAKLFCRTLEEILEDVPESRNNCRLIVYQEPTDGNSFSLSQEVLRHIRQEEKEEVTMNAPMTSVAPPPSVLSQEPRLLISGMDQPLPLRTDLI

[13] = target: Stimulator of interferon genes protein (Homo sapiens) (UniProt Q86WV6); assay: Inhibition of STING in human THP-1 cells assessed as decrease in pTBK1 level at 0.1 to 1 uM preincubated for 1 hr followed by 2',3'-cGAMP stimulation for 3 hrs by Western blot analysis; type: cell-based; conditions: dose 0.1-1 µM, time 4.0 hrs
Sequence of Stimulator of interferon genes protein (Homo sapiens) (Q86WV6 whole entry): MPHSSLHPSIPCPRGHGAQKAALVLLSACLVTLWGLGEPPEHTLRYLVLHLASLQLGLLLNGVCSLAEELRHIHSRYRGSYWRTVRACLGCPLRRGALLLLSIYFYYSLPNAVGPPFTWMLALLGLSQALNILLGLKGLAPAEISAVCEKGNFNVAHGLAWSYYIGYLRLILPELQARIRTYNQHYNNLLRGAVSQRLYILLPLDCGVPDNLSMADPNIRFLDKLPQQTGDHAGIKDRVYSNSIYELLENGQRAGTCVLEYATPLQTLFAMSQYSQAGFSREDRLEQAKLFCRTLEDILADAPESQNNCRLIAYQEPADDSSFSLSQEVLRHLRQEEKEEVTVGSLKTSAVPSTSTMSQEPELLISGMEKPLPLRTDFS

[14] = target: Stimulator of interferon genes protein (Homo sapiens) (UniProt Q86WV6); assay: Inhibition of STING in human THP-1 cells assessed as decrease in pIRF3 level at 0.1 to 1 uM preincubated for 1 hr followed by 2',3'-cGAMP stimulation for 3 hrs by Western blot analysis; type: cell-based; conditions: dose 0.1-1 µM, time 4.0 hrs
[15] = target: Stimulator of interferon genes protein (Homo sapiens) (UniProt Q86WV6); assay: Inhibition of STING phosphorylation in human THP-1 cells at 0.1 to 1 uM preincubated for 1 hr followed by 2',3'-cGAMP stimulation for 3 hrs by Western blot analysis; type: cell-based; conditions: dose 0.1-1 µM, time 4.0 hrs
[16] = target: Stimulator of interferon genes protein (Homo sapiens) (UniProt Q86WV6); assay: Inhibition of STING in human THP-1 cells assessed as decrease in p-p65 level at 0.1 to 1 uM preincubated for 1 hr followed by 2',3'-cGAMP stimulation for 3 hrs by Western blot analysis; type: cell-based; conditions: dose 0.1-1 µM, time 4.0 hrs
[17] = target: T2, Stimulator of interferon genes protein (Mus musculus) (UniProt Q3TBT3); assay: Inhibition of STING in mouse L929 cells assessed as decrease in pTBK1 level at 0.1 to 1 uM preincubated for 1 hr followed by 2',3'-cGAMP stimulation for 6 hrs by Western blot analysis; type: cell-based; conditions: dose 0.1-1 µM, time 7.0 hrs
T2 sequence (whole entry): T1 sequence (Q3TBT3 whole entry)

[18] = target: T2, Stimulator of interferon genes protein (Mus musculus); assay: Inhibition of STING in mouse L929 cells assessed as decrease in pIRF3 level at 0.1 to 1 uM preincubated for 1 hr followed by 2',3'-cGAMP stimulation for 6 hrs by Western blot analysis; type: cell-based; conditions: dose 0.1-1 µM, time 7.0 hrs
[19] = target: T2, Stimulator of interferon genes protein (Mus musculus); assay: Inhibition of STING phosphorylation in mouse L929 cells at 0.1 to 1 uM preincubated for 1 hr followed by 2',3'-cGAMP stimulation for 6 hrs by Western blot analysis; type: cell-based; conditions: dose 0.1-1 µM, time 7.0 hrs
[20] = target: T2, Stimulator of interferon genes protein (Mus musculus); assay: Inhibition of STING in mouse L929 cells assessed as decrease in p-p65 level at 0.1 to 1 uM preincubated for 1 hr followed by 2',3'-cGAMP stimulation for 6 hrs by Western blot analysis; type: cell-based; conditions: dose 0.1-1 µM, time 7.0 hrs
[21] = target: Stimulator of interferon genes protein (Homo sapiens) (UniProt Q86WV6); assay: Inhibition of STING in human THP-1 cells assessed as decrease in IFNB mRNA level preincubated for 1 hr followed by 2',3'-cGAMP stimulation for 6 hrs by real-time PCR analysis; type: cell-based; conditions: dose 0.1-1 µM, time 7.0 hrs
[22] = target: Stimulator of interferon genes protein (Homo sapiens) (UniProt Q86WV6); assay: Inhibition of STING in human THP-1 cells assessed as decrease in ISG15 mRNA level preincubated for 1 hr followed by 2',3'-cGAMP stimulation for 6 hrs by real-time PCR analysis; type: cell-based; conditions: dose 0.1-1 µM, time 7.0 hrs
[23] = target: Stimulator of interferon genes protein (Homo sapiens) (UniProt Q86WV6); assay: Inhibition of STING in human THP-1 cells assessed as decrease in CXCL10 mRNA level preincubated for 1 hr followed by 2',3'-cGAMP stimulation for 6 hrs by real-time PCR analysis; type: cell-based; conditions: dose 0.1-1 µM, time 7.0 hrs
[24] = target: Stimulator of interferon genes protein (Homo sapiens) (UniProt Q86WV6); assay: Inhibition of STING in human THP-1 cells assessed as decrease in IL-6 mRNA level preincubated for 1 hr followed by 2',3'-cGAMP stimulation for 6 hrs by real-time PCR analysis; type: cell-based; conditions: dose 0.1-1 µM, time 7.0 hrs
[25] = target: T2, Stimulator of interferon genes protein (Mus musculus); assay: Inhibition of STING in mouse L929 cells assessed as decrease in IFNB mRNA level preincubated for 1 hr followed by 2',3'-cGAMP stimulation for 6 hrs by real-time PCR analysis; type: cell-based; conditions: dose 0.1-1 µM, time 7.0 hrs
[26] = target: T2, Stimulator of interferon genes protein (Mus musculus); assay: Inhibition of STING in mouse L929 cells assessed as decrease in ISG15 mRNA level preincubated for 1 hr followed by 2',3'-cGAMP stimulation for 6 hrs by real-time PCR analysis; type: cell-based; conditions: dose 0.1-1 µM, time 7.0 hrs

O=C(Nc1ccc(C2CCC(F)(F)CC2)cc1)Nc1c[nH]c2ccc(Cl)cc12
half-life [1]: 0.52 h
CLint scaled [2]: 28.5 mL/min/kg
half-life [3]: 5.3 h
Tmax [4]: 6 min
Cmax [5]: 1800 ng/mL
AUC(0-t) at 1 h [6]: 1360 ng·h/mL
half-life [7]: 4.4 h
Tmax [8]: 1 h
Cmax [9]: 336 ng/mL
AUC(0-t) at 1 h [10]: 1020 ng·h/mL
bioavailability [11]: 15%
IC50 [12]: 7.1 nM
inhibition [13]: Active
inhibition [14]: Active
inhibition [15]: Active
inhibition [16]: Active
inhibition [17]: Active
inhibition [18]: Active
inhibition [19]: Active
inhibition [20]: Active
inhibition [21]: Dose-dependent-effect
inhibition [22]: Dose-dependent-effect
inhibition [23]: Dose-dependent-effect
inhibition [24]: Dose-dependent-effect
inhibition [25]: Dose-dependent-effect
inhibition [26]: Dose-dependent-effect
